Data on two molecules can be found in patent publication US8486897B2, “C-aryl glycoside compounds for the treatment of diabetes and obesity” (TFCHEM, priority 2008, dated 2013).

Structures are written as SMILES.

The target in one assay is T1, Human SGLT1 (Homo sapiens, UniProt P13866).
T1 construct: pCMV6 vector containing the full length human SGLT1 gene
T1 sequence (P13866 1-664): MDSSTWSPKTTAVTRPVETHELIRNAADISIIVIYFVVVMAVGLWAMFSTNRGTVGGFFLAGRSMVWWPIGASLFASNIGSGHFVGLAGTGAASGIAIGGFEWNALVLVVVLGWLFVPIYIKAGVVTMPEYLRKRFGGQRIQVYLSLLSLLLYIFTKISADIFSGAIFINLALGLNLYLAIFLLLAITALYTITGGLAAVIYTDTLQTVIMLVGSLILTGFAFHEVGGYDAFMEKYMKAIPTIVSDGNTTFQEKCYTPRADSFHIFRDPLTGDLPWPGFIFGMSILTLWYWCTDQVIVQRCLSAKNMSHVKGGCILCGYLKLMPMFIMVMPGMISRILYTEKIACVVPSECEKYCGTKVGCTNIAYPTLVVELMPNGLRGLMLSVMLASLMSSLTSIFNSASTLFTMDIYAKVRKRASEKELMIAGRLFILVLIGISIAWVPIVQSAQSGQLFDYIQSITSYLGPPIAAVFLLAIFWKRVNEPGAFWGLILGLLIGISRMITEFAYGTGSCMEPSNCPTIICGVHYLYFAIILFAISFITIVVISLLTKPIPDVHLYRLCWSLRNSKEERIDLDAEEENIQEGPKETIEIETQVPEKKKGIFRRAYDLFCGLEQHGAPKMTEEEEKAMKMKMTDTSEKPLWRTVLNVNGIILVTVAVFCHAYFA
Kind of assay: Cell-based assay for inhibition of uptake of 14C-methyl-α-D-glucopyranoside (14C-AMG) in CHO-K1 cells stably expressing human SGLT1. The following applies: compound at 100 μM, 14C-AMG uptake, 1 hour at 37° C. The text has this: (§1) 1. Preparation of Human SGLT1 and Human SGLT2 Expression Vectors:
• Human SGLT1 (Genbank M24847) cDNA was cloned from a pCMV6 vector containing the full length human SGLT1 gene (Origene NM 000343, Cat. #: RC221312) and Human SGLT2 (Genbank M95549) cDNA was cloned from a pCMV6 vector containing the full length human SGLT2 gene (Origene NM_003041, Cat. #: RC224822). The full cDNAs were subcloned independently into mammalian cell expression plasmid pSPI1 and sequenced to verify the integrity of the construct. 2. Preparation of CHO-K1 Cells Stably Expressing Human SGLT1 and Human SGLT2: • Transfection of CHO-K^1 cells was performed using 2.5 ug of pSPI1-SGLT1 or pSPI1-SGLT2 plasmid with about 6 ul of Lipofectamin 2000 (Invitrogen, Cat. #: 11668-019) in about 1.5×10^5 CHO-K1 cells using 12-well cell culture plate (Becton Dickinson, Cat. #: 353003) in the presence of DMEM medium (Dulbecco's Modified Eagle Medium) (Gibco, Cat. #: 11885-092) containing 10% FBS (Sigma, Cat. #: F1051-500mL). […] Sodium-dependent D-glucose transport was determined by measuring the uptake of 14C-methyl-α-D-glucopyranoside (14C-AMG) with a specific activity of 250-350mCi (9.25-13.0 GBq)/mmol (PerkinElmer, Cat. #: NEC 659250UC). […] Scintillation cocktail (1004) was added and the 14C-AMG radioisotope counted in a MicroBeta Trilux (PerkinElmer).

For the next assay, the target named is T2, Human SGLT2 (Homo sapiens, UniProt P31639).
T2 construct: pCMV6 vector containing the full length human SGLT2 gene
T2 sequence (P31639 1-672): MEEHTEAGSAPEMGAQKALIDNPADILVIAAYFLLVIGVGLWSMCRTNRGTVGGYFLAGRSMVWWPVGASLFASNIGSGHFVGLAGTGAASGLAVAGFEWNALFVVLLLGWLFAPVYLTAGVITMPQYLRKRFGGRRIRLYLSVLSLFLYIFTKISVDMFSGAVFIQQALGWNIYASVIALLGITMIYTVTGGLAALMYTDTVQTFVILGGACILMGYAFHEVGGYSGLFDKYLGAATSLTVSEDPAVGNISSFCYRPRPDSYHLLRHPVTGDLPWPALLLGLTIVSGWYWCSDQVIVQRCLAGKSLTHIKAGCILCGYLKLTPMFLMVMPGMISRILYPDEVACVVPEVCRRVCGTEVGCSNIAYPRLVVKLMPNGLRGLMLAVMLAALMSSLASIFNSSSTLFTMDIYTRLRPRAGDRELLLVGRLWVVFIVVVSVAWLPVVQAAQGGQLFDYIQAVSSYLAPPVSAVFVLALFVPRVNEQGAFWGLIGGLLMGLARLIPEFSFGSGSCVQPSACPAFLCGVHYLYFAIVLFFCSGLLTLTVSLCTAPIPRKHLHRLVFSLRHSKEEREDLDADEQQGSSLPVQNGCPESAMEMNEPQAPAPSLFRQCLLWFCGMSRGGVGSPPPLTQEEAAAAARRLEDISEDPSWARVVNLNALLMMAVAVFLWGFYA
Kind of assay: Cell-based assay for inhibition of uptake of 14C-methyl-α-D-glucopyranoside (14C-AMG) in CHO-K1 cells stably expressing human SGLT2. As to conditions: 14C-AMG uptake, 1 hour at 37° C.; for inhibition at 10 µM: compound at 10 μM; for inhibition at 100 µM: compound at 100 μM.
Excerpt: The compounds of the invention have been tested for their ability to inhibit Human Sodium Glucose Co-Transporter 2 (Human SGLT2) according to the following protocol:
as §1
• Human SGLT1 (Genbank M24847) cDNA was cloned from a pCMV6 vector containing the full length human SGLT1 gene (Origene NM 000343, Cat. #: RC221312) and Human SGLT2 (Genbank M95549) cDNA was cloned from a pCMV6 vector containing the full length human SGLT2 gene (Origene NM_003041, Cat. #: RC224822). The full cDNAs were subcloned independently into mammalian cell expression plasmid pSPI1 and sequenced to verify the integrity of the construct. 2. Preparation of CHO-K1 Cells Stably Expressing Human SGLT1 and Human SGLT2: • Transfection of CHO-K^1 cells was performed using 2.5 ug of pSPI1-SGLT1 or pSPI1-SGLT2 plasmid with about 6 ul of Lipofectamin 2000 (Invitrogen, Cat. #: 11668-019) in about 1.5×10^5 CHO-K1 cells using 12-well cell culture plate (Becton Dickinson, Cat. #: 353003) in the presence of DMEM medium (Dulbecco's Modified Eagle Medium) (Gibco, Cat. #: 11885-092) containing 10% FBS (Sigma, Cat. #: F1051-500mL). Transfectants were then selected in the presence of the antibiotic G418 (GIBCO, Cat. #: 11811-031) at final concentration of 750 ug/ml. Individual clones for both SGLT1 and SGLT2 were then characterized using the functional cell-based assay described below. 3. Cell-Based Assay for Inhibition of Uptake of methyl-α-D-glucopyranoside by Human SGLT1 and Human SGLT2: • Selected cell lines stably expressing human SGLT1 or human SGLT2 were then used for functional analysis of sodium dependent glucose uptake. Sodium-dependent D-glucose transport was determined by measuring the uptake of 14C-methyl-α-D-glucopyranoside (14C-AMG) with a specific activity of 250-350mCi (9.25-13.0 GBq)/mmol (PerkinElmer, Cat. #: NEC 659250UC). The assay buffer used to assess sodium-dependent D-glucose transport was Krebs-Ringer-Henseleit (KRH) solution containing 4.7 mM KCl, 1.2 mM MgCl2, 2.2 mM CaCl2, 10 mM Hepes pH 7.4 with Tris (Sigma). For sodium (Na^+) conditions the Assay Buffer containing 120 mM NaCl (Na^+) was used to assess sodium-dependent D-glucose transport (KRH-Na^+). For sodium free conditions, KRH solution containing 120 mM N-methyl-glucamine (NMG) instead of NaCl (Na^+) was used to assess sodium-independent D-glucose transport (KRH-NMG). All buffer chemicals were purchased from Sigma. • In brief, the cells were plated at a density of 40,000 cells per well in a 96-well plate in DMEM media and allowed to grow for 24 hours. Cells were subsequently washed twice (2×100 μL) with KRH buffer cells containing NMG. […] Scintillation cocktail (1004) was added and the 14C-AMG radioisotope counted in a MicroBeta Trilux (PerkinElmer).

Broadly, the inhibition is how much of the control response was suppressed. A lower inhibition goes with a response near the control. Regarding `OC[C@H]1O[C@@H](C(F)(F)c2ccccc2)[C@H](O)[C@@H](O)[C@@H]1O` [Compound 100], at Human SGLT1, the inhibition at 100 µM was 46%. On Human SGLT2, the inhibition at 10 µM worked out at 30% and 100 µM produced 79% inhibition.
`CCc1ccc(Cc2ccccc2C(F)(F)[C@@H]2O[C@H](CO)[C@@H](O)[C@H](O)[C@H]2O)cc1` [Compound 104] yielded an inhibition at 100 µM at Human SGLT1 of 48%. At Human SGLT2, this molecule had an inhibition at 10 µM of 40% and an inhibition at 100 µM of 56%.
